Measurements published in PubChem BioAssay AID1963962 (Molecular Pharmacology Branch, DTP, NCI, 2024).

Tested on: 967376-340-R-J2-PDC multicell spheroid viability
Assay: Anticancer human tumor 967376-340-R-J2-PDC patient-derived colon adenocarcinoma cell line growth inhibition [PI3K]
Details: for IC50: curve of first compound; for viability, T/C: stronger effect = lower value
Summary of the method: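 Tumor cells grown as multi-cell spheroids with HUVEC endothelial cells and MSC fibroblast-like stroma were treated with targeted agents combined with inavolisib, alpelisib, duvelisib or copanlisib. Doses fell in half-log steps from near clinical Cmax, else from 10 microM. Viability was measured.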

[1] = second compound 0.00316 µM, first compound 0.0316 µM
[2] = second compound 0.00316 µM, first compound 0.1 µM
[3] = second compound 0.00316 µM, first compound 0.316 µM
[4] = second compound 0.00316 µM, first compound 1 µM
[5] = second compound 0.00316 µM, first compound 3.16 µM
[6] = second compound 0.00316 µM, first compound 10 µM
[7] = second compound 0.01 µM, first compound 0.0316 µM
[8] = second compound 0.01 µM, first compound 0.1 µM
[9] = second compound 0.01 µM, first compound 0.316 µM
[10] = second compound 0.01 µM, first compound 1 µM
[11] = second compound 0.01 µM, first compound 3.16 µM
[12] = second compound 0.01 µM, first compound 10 µM
[13] = second compound 0.0316 µM, first compound 0.0316 µM
[14] = second compound 0.0316 µM, first compound 0.1 µM
[15] = second compound 0.0316 µM, first compound 0.316 µM
[16] = second compound 0.0316 µM, first compound 1 µM
[17] = second compound 0.0316 µM, first compound 3.16 µM
[18] = second compound 0.0316 µM, first compound 10 µM
[19] = second compound 0.1 µM, first compound 0.0316 µM
[20] = second compound 0.1 µM, first compound 0.1 µM
[21] = second compound 0.1 µM, first compound 0.316 µM
[22] = second compound 0.1 µM, first compound 1 µM
[23] = second compound 0.1 µM, first compound 3.16 µM
[24] = second compound 0.1 µM, first compound 10 µM
[25] = second compound 0.316 µM, first compound 0.0316 µM
[26] = second compound 0.316 µM, first compound 0.1 µM
[27] = second compound 0.316 µM, first compound 0.316 µM
[28] = second compound 0.316 µM, first compound 1 µM
[29] = second compound 0.316 µM, first compound 3.16 µM
[30] = second compound 0.316 µM, first compound 10 µM
[31] = second compound 1 µM, first compound 0.0316 µM
[32] = second compound 1 µM, first compound 0.1 µM
[33] = second compound 1 µM, first compound 0.316 µM
[34] = second compound 1 µM, first compound 1 µM
[35] = second compound 1 µM, first compound 3.16 µM
[36] = second compound 1 µM, first compound 10 µM
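Also: spheroids exposed to agents for 7 days before read-out.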
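For viability, T/C in this document: luminescence used as surrogate of cell viability.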

Structure (SMILES): CC(C)NCC(C(=O)N1CCN(c2ncnc3c2C(C)CC3O)CC1)c1ccc(Cl)cc1 (stereo unspecified) + CC(Nc1ccc2c(c1)OCCn1cc(N3C(=O)OCC3C(F)F)nc1-2)C(N)=O
- IC50 (second compound 0.00316 µM): > 10 µM
- IC50 (second compound 0.01 µM): > 10 µM
- IC50 (second compound 0.0316 µM): > 10 µM
- IC50 (second compound 0.1 µM): > 10 µM
- IC50 (second compound 0.316 µM): > 10 µM
- IC50 (second compound 1 µM): 7.61 µM
- viability, T/C [1]: 98.4%
- viability, T/C [2]: 118%
- viability, T/C [3]: 71.2%
- viability, T/C [4]: 76.8%
- viability, T/C [5]: 91.9%
- viability, T/C [6]: 77.9%
- viability, T/C [7]: 79.3%
- viability, T/C [8]: 86.5%
- viability, T/C [9]: 74.4%
- viability, T/C [10]: 84.7%
- viability, T/C [11]: 83.4%
- viability, T/C [12]: 81.2%
- viability, T/C [13]: 68.5%
- viability, T/C [14]: 90.4%
- viability, T/C [15]: 59.4%
- viability, T/C [16]: 77.1%
- viability, T/C [17]: 73.5%
- viability, T/C [18]: 60.9%
- viability, T/C [19]: 60.1%
- viability, T/C [20]: 82%
- viability, T/C [21]: 68.6%
- viability, T/C [22]: 72.4%
- viability, T/C [23]: 83.9%
- viability, T/C [24]: 64%
- viability, T/C [25]: 57.5%
- viability, T/C [26]: 60.7%
- viability, T/C [27]: 57.6%
- viability, T/C [28]: 65.5%
- viability, T/C [29]: 57.8%
- viability, T/C [30]: 62.8%
- viability, T/C [31]: 51.4%
- viability, T/C [32]: 59.2%
- viability, T/C [33]: 67.6%
- viability, T/C [34]: 60.8%
- viability, T/C [35]: 57.3%
- viability, T/C [36]: 37.2%

Structure (SMILES): CC1(C)CCC(CN2CCN(c3ccc(C(=O)NS(=O)(=O)c4ccc(NCC5CCOCC5)c([N+](=O)[O-])c4)c(Oc4cnc5[nH]ccc5c4)c3)CC2)=C(c2ccc(Cl)cc2)C1 + CC(Nc1ccc2c(c1)OCCn1cc(N3C(=O)OCC3C(F)F)nc1-2)C(N)=O
- IC50 (second compound 0.00316 µM): > 10 µM
- IC50 (second compound 0.01 µM): > 10 µM
- IC50 (second compound 0.0316 µM): > 10 µM
- IC50 (second compound 0.1 µM): > 10 µM
- IC50 (second compound 0.316 µM): 7.82 µM
- IC50 (second compound 1 µM): 4.85 µM
- viability, T/C [1]: 106%
- viability, T/C [2]: 67.9%
- viability, T/C [3]: 97.2%
- viability, T/C [4]: 98%
- viability, T/C [5]: 102%
- viability, T/C [6]: 61.1%
- viability, T/C [7]: 107%
- viability, T/C [8]: 75.7%
- viability, T/C [9]: 79.9%
- viability, T/C [10]: 78.6%
- viability, T/C [11]: 81.2%
- viability, T/C [12]: 57.3%
- viability, T/C [13]: 67.3%
- viability, T/C [14]: 86.5%
- viability, T/C [15]: 82.2%
- viability, T/C [16]: 88.9%
- viability, T/C [17]: 75.9%
- viability, T/C [18]: 81.5%
- viability, T/C [19]: 70.6%
- viability, T/C [20]: 80.5%
- viability, T/C [21]: 79.1%
- viability, T/C [22]: 84.7%
- viability, T/C [23]: 95.7%
- viability, T/C [24]: 58.8%
- viability, T/C [25]: 68.3%
- viability, T/C [26]: 81.5%
- viability, T/C [27]: 58.2%
- viability, T/C [28]: 76.2%
- viability, T/C [29]: 71.2%
- viability, T/C [30]: 44.5%
- viability, T/C [31]: 56.7%
- viability, T/C [32]: 48.1%
- viability, T/C [33]: 57.2%
- viability, T/C [34]: 49.9%
- viability, T/C [35]: 67.8%
- viability, T/C [36]: 36.2%

Structure (SMILES): C[C@@H](NC(=O)c1ncnc(N)c1Cl)c1ncc(C(=O)Nc2cc(C(F)(F)F)c(Cl)cn2)s1 + CC(Nc1ccc2c(c1)OCCn1cc(N3C(=O)OCC3C(F)F)nc1-2)C(N)=O
- IC50 (second compound 0.00316 µM): > 10 µM
- IC50 (second compound 0.01 µM): > 10 µM
- IC50 (second compound 0.0316 µM): > 10 µM
- IC50 (second compound 0.1 µM): > 10 µM
- IC50 (second compound 0.316 µM): > 10 µM
- IC50 (second compound 1 µM): > 10 µM
- viability, T/C [1]: 105%
- viability, T/C [2]: 74.9%
- viability, T/C [3]: 73.3%
- viability, T/C [4]: 91.9%
- viability, T/C [5]: 80.4%
- viability, T/C [6]: 97.9%
- viability, T/C [7]: 83.9%
- viability, T/C [8]: 98.7%
- viability, T/C [9]: 101%
- viability, T/C [10]: 94.8%
- viability, T/C [11]: 97.1%
- viability, T/C [12]: 130%
- viability, T/C [13]: 62.2%
- viability, T/C [14]: 107%
- viability, T/C [15]: 69%
- viability, T/C [16]: 98.9%
- viability, T/C [17]: 95.2%
- viability, T/C [18]: 109%
- viability, T/C [19]: 72.9%
- viability, T/C [20]: 67.8%
- viability, T/C [21]: 63.6%
- viability, T/C [22]: 77.7%
- viability, T/C [23]: 75.2%
- viability, T/C [24]: 66%
- viability, T/C [25]: 65.5%
- viability, T/C [26]: 70.6%
- viability, T/C [27]: 78.2%
- viability, T/C [28]: 73.5%
- viability, T/C [29]: 77.2%
- viability, T/C [30]: 70.9%
- viability, T/C [31]: 69.4%
- viability, T/C [32]: 62.2%
- viability, T/C [33]: 56%
- viability, T/C [34]: 57.9%
- viability, T/C [35]: 69.9%
- viability, T/C [36]: 62%
